Data taken from US20050113450A1, “Antibacterial agents” (priority 2002, published 2005).
Values after ≈ are worked out from the molar mass of the structure shown.

These compounds were tested on SA 9218 (assay: MIC by standard agar dilution method). Conditions: Mueller Hinton agar, 10^4 to 10^5 cells per spot, incubated overnight at 35° C., lowest concentration that inhibits visible growth.
Assay type: cell-based
Excerpt: The antibacterial agents of this invention have useful activity against a variety of organisms. The in vitro activity of compounds of this invention can be assessed by standard testing procedures such as the determination of minimum inhibitory concentration (MIC) by agar dilution as described in “Approved Standard. Methods for Dilution Antimicrobial Susceptibility Tests for Bacteria That Grow Aerobically”, 3rd. ed., published 1993 by the National Committee for Clinical Laboratory Standards, Villanova, Pa., USA. The in vitro MICs of test compounds were determined by a standard agar dilution method. A stock drug solution of each analog was prepared in the preferred solvent, usually DMSO:H2O (1:3). Serial 2-fold dilutions of each sample are made using 1.0 ml aliquots of sterile distilled water. To each 1.0 ml aliquot of drug was added 9 ml of molten Mueller Hinton agar medium. The drug-supplemented agar was mixed, poured into 15×100 mm petri dishes, and allowed to solidify and dry prior to inoculation. Vials of each of the test organisms are maintained frozen in the vapor phase of a liquid nitrogen freezer. Test cultures are grown overnight at 35° C. on the medium appropriate for the organism. Colonies are harvested with a sterile swab, and cell suspensions are prepared in Trypticase Soy broth (TSB) to equal the turbidity of a 0.5 McFarland standard. A 1:20 dilution of each suspension was made in TSB. The plates containing the drug supplemented agar are inoculated with a 0.001 ml drop of the cell suspension using a Steers replicator, yielding approximately 10^4 to 10^5 cells per spot. The plates are incubated overnight at 35° C. Following incubation the Minimum Inhibitory Concentration (MIC μg/ml), the lowest concentration of drug that inhibits visible growth of the organism, was read and recorded.
With `O=C(O)c1cc(Br)ccc1NC(=O)c1cccc2c1-c1ccccc1C2=O` the MIC was 128 µg/mL (≈ 303 µM).
For `O=C(Nc1ccc(Br)cc1C(=O)O)c1cccc(OCc2cccc(F)c2)c1`, the MIC was 16 µg/mL (≈ 36 µM).
With `N#Cc1ccc(NC(=O)c2cccc(S(=O)(=O)N3CCC(O)CC3)c2)c(C(=O)O)c1` [PHA-571219] the MIC was 32 µg/mL (≈ 74.5 µM).
Work on `COc1ccc(CCOc2cccc(C(=O)Nc3ccc(Br)cc3C(=O)O)c2)cc1` yielded an MIC of 32 µg/mL (≈ 68 µM).
For `CCNS(=O)(=O)c1cccc(C(=O)Nc2ccc(Br)cc2C(=O)O)c1`, the MIC was 64 µg/mL (≈ 150 µM).
`CC(=O)c1cccc(NC(=O)Nc2cccc(C(=O)Nc3ccc(Br)cc3C(=O)O)c2)c1` [PHA-708993] was tested, and the MIC was 4 µg/mL (≈ 8.06 µM).
With `CCN(CC)C(=O)C1CCCN(S(=O)(=O)c2cccc(C(=O)Nc3ccc(C#N)cc3C(=O)O)c2)C1` (stereo not shown) [PHA-571176] the MIC was 64 µg/mL (≈ 125 µM).
With `CCSc1cccc(C(=O)Nc2ccc(Br)cc2C(=O)O)c1` [PHA-501748] the MIC was 2 µg/mL (≈ 5.26 µM).
For `CC1CCN(S(=O)(=O)c2ccc(C(=O)Nc3ccc(C#N)cc3C(=O)O)cc2)CC1` [PHA-571240], the MIC was 16 µg/mL (≈ 37.4 µM).
Compound `O=C(Nc1ccc(Br)cc1C(=O)O)c1ccc(NS(=O)(=O)c2ccc(OC(F)(F)F)cc2)cc1` [PHA-708996] has an MIC of 16 µg/mL (≈ 28.6 µM).
In the case of `CN(c1ccccc1N)S(=O)(=O)c1cccc(C(=O)Nc2ccc(C#N)cc2C(=O)O)c1` [PHA-670083], the MIC was 0.5 µg/mL (≈ 1.11 µM).
`N#Cc1cc(C(=O)Nc2ccc(Br)cc2C(=O)O)cc(S(=O)(=O)N2CCc3ccccc32)c1` [PHA-530687] gave an MIC of 8 µg/mL (≈ 15.2 µM).
Compound `O=C(Nc1ccc(I)cc1C(=O)O)c1ccc(S(=O)(=O)N2CC=CC2)cc1` has an MIC of 32 µg/mL (≈ 64.2 µM).
Work on `O=C(Nc1ccc([N+](=O)[O-])cc1C(=O)O)c1cccc(C(=O)c2ccccc2)c1` [PHA-519402] yielded an MIC of 0.5 µg/mL (≈ 1.28 µM).
`O=C(CSc1ccccc1)Nc1cccc(C(=O)Nc2ccc(Br)cc2C(=O)O)c1` [PHA-708985] was tested, and the MIC was 8 µg/mL (≈ 16.5 µM).
Compound `Cc1ccc(S(=O)(=O)Nc2ccc3c(c2)OCCO3)cc1C(=O)Nc1ccc(Br)cc1C(=O)O` has an MIC of 64 µg/mL (≈ 117 µM).
`CN(CC(O)c1ccccc1)S(=O)(=O)c1ccc(C(=O)Nc2ccc(C#N)cc2C(=O)O)cc1` (stereo not shown) [PHA-656809] was tested, and the MIC was 64 µg/mL (≈ 133 µM).
`CCC(CC)C(=O)c1ccc(C(=O)Nc2ccc(Cl)cc2C(=O)O)cc1` showed an MIC of 4 µg/mL (≈ 10.7 µM).
`CCCCCC(=O)c1cccc(C(=O)Nc2ccc(Cl)cc2C(=O)O)c1` was tested, and the MIC was 8 µg/mL (≈ 21.4 µM).
For `CCOc1ccc(C(=O)Nc2ccc(Br)cc2C(=O)O)cc1`, the MIC was 64 µg/mL (≈ 176 µM).
`COc1ccc(C(=O)Nc2ccc(Br)cc2C(=O)O)cc1S(=O)(=O)N1CCN(c2ccc(Cl)cc2)CC1` showed an MIC of 8 µg/mL (≈ 13.1 µM).
In the case of `CC(C)(C)N1C(=O)c2ccc(C(=O)Nc3ccc(C#N)cc3C(=O)O)cc2C1=O` [PHA-630726], the MIC was 4 µg/mL (≈ 10.2 µM).
In the case of `N#Cc1ccc(NC(=O)c2ccc(S(=O)(=O)N3CCCCCC3)cc2)c(C(=O)O)c1` [PHA-571174], the MIC was 64 µg/mL (≈ 150 µM).
`O=C(Nc1ccc(-c2ccco2)cc1C(=O)O)c1cccc(S(=O)(=O)N2CCc3cc(Cl)ccc32)c1` [PHA-556663] gave an MIC of 8 µg/mL (≈ 15.3 µM).
Compound `N#Cc1ccc(NC(=O)c2ccc3c(c2)OCO3)c(C(=O)O)c1` has an MIC of 16 µg/mL (≈ 51.6 µM).
Work on `COc1cc(OC)cc(C(=O)Nc2ccc(C#N)cc2C(=O)O)c1` yielded an MIC of 8 µg/mL (≈ 24.5 µM).
`Cc1ccc(S(=O)(=O)Nc2cccc(C(=O)Nc3ccc(Br)cc3C(=O)O)c2)cc1` gave an MIC of 0.5 µg/mL (≈ 1.02 µM).
`CCCNC(c1cccnc1)c1cccc(C(=O)Nc2ccc(Cl)cc2C(=O)O)c1` (stereo not shown) was tested, and the MIC was 8 µg/mL (≈ 18.9 µM).
In the case of `COc1ccc(Br)c(C(=O)Nc2ccc(C#N)cc2C(=O)O)c1` [PHA-571153], the MIC was 64 µg/mL (≈ 171 µM).
Work on `CCN(CC)c1ccc(NS(=O)(=O)c2cc(C(=O)Nc3ccc(Br)cc3C(=O)O)ccc2C)cc1` yielded an MIC of 64 µg/mL (≈ 114 µM).
With `CN(c1ccc(Cl)cc1)S(=O)(=O)c1cccc(C(=O)Nc2ccc(Br)cc2C(=O)O)c1` [PNU-283076] the MIC was 1 µg/mL (≈ 1.91 µM).
`COc1ccc(C(=O)Nc2ccc(Br)cc2C(=O)O)cc1F` gave an MIC of 16 µg/mL (≈ 43.5 µM).
`N#Cc1ccc(NC(=O)c2cccc(SC3CCCC3)c2)c(C(=O)O)c1` [PHA-546926] was tested, and the MIC was 0.5 µg/mL (≈ 1.36 µM).
For `O=C(Nc1ccc(Br)cc1C(=O)O)c1cc(C(F)(F)F)ccc1Cl`, the MIC was > 128 µg/mL.
`Cc1cc(C(=O)Nc2ccc(C#N)cc2C(=O)O)cc(S(=O)(=O)N2CCc3ccccc32)c1` [PHA-556214] was tested, and the MIC was 1 µg/mL (≈ 2.17 µM).
For `Cc1c(C(=O)Nc2ccc(Br)cc2C(=O)O)cccc1S(=O)(=O)N(C)c1ccc(Cl)cc1` [PHA-717196], the MIC was 4 µg/mL (≈ 7.44 µM).
Work on `CN(CCC(O)c1ccccc1)S(=O)(=O)c1cccc(C(=O)Nc2ccc(C#N)cc2C(=O)O)c1` (stereo not shown) [PHA-571196] yielded an MIC of 64 µg/mL (≈ 130 µM).
`O=C(Nc1ccc(Oc2ccccc2)cc1)Nc1ccc(C(=O)Nc2ccc(Br)cc2C(=O)O)cc1` [PHA-713400] was tested, and the MIC was 16 µg/mL (≈ 29.3 µM).
For `COc1cc(C(=O)c2cccc(C(=O)Nc3ccc(Cl)cc3C(=O)O)c2)cc(OC)c1OC`, the MIC was 32 µg/mL (≈ 68.1 µM).
`COc1cc(C(=O)Nc2ccc(C#N)cc2C(=O)O)ccc1C` was tested, and the MIC was > 128 µg/mL.
